The source of these data is patent publication US20230123334A1, “AMINO LIPID COMPOUND, PREPARATION METHOD THEREFOR, AND APPLICATION THEREOF” (SHENZHEN SHENXIN BIOTECHNOLOGY CO., LTD., priority 2020, published 2023).

This experiment relates to HEK293 cells. In words: Preliminary screening as DNA vectors, GFP transfection of HEK293 cells. Type of experiment: cell-based. Conditions: amino lipid/DOPE liposome with 75 ng plasmid DNA (psin-EGFP-IRES-Puro); number of GFP-expressing cells divided by total nuclei (Hoechst). The gist of the method: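 HEK293 cells in DMEM/10% FBS transfected with 75 ng EGFP plasmid per well complexed with amino lipid/DOPE liposomes in pH 5.6 sodium acetate. Hoechst nuclear stain added 20-24 h post-transfection, then cells cultured another 20-24 h. Confocal imaging gives GFP-positive cells as % of total nuclei.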
Turning to `CCCCCCCCCCCCCCCNc1nc(NCC2CCN(C)CC2)nc(SCCCCCCCCCC)n1` [S10N15 D10], the “Absolute DNA transfection efficiency in HEK293 cells” value (“Absolute DNA transfection efficiency” below) was found to be 6.9%. To `CCCCCCCCCCCCCCCCNc1nc(NCCN(C)C)nc(SCCCCCCCCCC)n1` [S10N16 D1] belongs 7.8%; to `CCCCCCCCCCCCCCCCNc1nc(NCCN2CCOCC2)nc(SCCCCCCCCCC)n1` [S10N16 D2], 1.2%. `CCCCCCCCCCCCCCCCNc1nc(NCCN2CCCC2)nc(SCCCCCCCCCC)n1` [S10N16 D3]: the “Absolute DNA transfection efficiency” value was 8.8%. For the molecule `CCCCCCCCCCCCCCCCNc1nc(NCCN2CCCCC2)nc(SCCCCCCCCCC)n1` [S10N16 D4], the “Absolute DNA transfection efficiency” value is recorded as 4.4%. In the case of `CCCCCCCCCCCCCCCCNc1nc(NCCN2CCN(C)CC2)nc(SCCCCCCCCCC)n1` [S10N16 D5] it was 3.1%. To `CCCCCCCCCCCCCCCCNc1nc(NCCCN(C)C)nc(SCCCCCCCCCC)n1` [S10N16 D6] belongs 13.6%; to `CCCCCCCCCCCCCCCCNc1nc(NCCN(CC)CC)nc(SCCCCCCCCCC)n1` [S10N16 D7], 4.8%; to `CCCCCCCCCCCCCCCCNc1nc(NCCCN2CCOCC2)nc(SCCCCCCCCCC)n1` [S10N16 D8], 3.0%. In the case of `CCCCCCCCCCCCCCCCNc1nc(NCCCN2CCN(C)CC2)nc(SCCCCCCCCCC)n1` [S10N16 D9] it was 5.0%; in that of `CCCCCCCCCCCCCCCCNc1nc(NCC2CCN(C)CC2)nc(SCCCCCCCCCC)n1` [S10N16 D10], 8.7%; in that of `CCCCCCCCCCCCCCCCCCNc1nc(NCCN(C)C)nc(SCCCCCCCCCC)n1` [S10N18 D1], 9.0%. Turning to `CCCCCCCCCCCCCCCCCCNc1nc(NCCN2CCOCC2)nc(SCCCCCCCCCC)n1` [S10N18 D2], the “Absolute DNA transfection efficiency” value is on record as 2.1%. `CCCCCCCCCCCCCCCCCCNc1nc(NCCN2CCCC2)nc(SCCCCCCCCCC)n1` [S10N18 D3]: the “Absolute DNA transfection efficiency” value stood at 11.9%. In the case of `CCCCCCCCCCCCCCCCCCNc1nc(NCCN2CCCCC2)nc(SCCCCCCCCCC)n1` [S10N18 D4], the “Absolute DNA transfection efficiency” value came out at 4.9%.

As to `CCCCCCCCCCCCCCCCCCNc1nc(NCCN2CCN(C)CC2)nc(SCCCCCCCCCC)n1` [S10N18 D5], the “Absolute DNA transfection efficiency” value is 1.8%. As to `CCCCCCCCCCCCCCCCCCNc1nc(NCCCN(C)C)nc(SCCCCCCCCCC)n1` [S10N18 D6], the “Absolute DNA transfection efficiency” value stood at 7.8%. Turning to `CCCCCCCCCCCCCCCCCCNc1nc(NCCN(CC)CC)nc(SCCCCCCCCCC)n1` [S10N18 D7], the “Absolute DNA transfection efficiency” value is given as 4.0%.

As to `CCCCCCCCCCCCCCCCCCNc1nc(NCCCN2CCOCC2)nc(SCCCCCCCCCC)n1` [S10N18 D8], the “Absolute DNA transfection efficiency” value was 0.3%. On to `CCCCCCCCCCCCCCCCCCNc1nc(NCCCN2CCN(C)CC2)nc(SCCCCCCCCCC)n1` [S10N18 D9], for which the “Absolute DNA transfection efficiency” value worked out at 3.3%. To `CCCCCCCCCCCCCCCCCCNc1nc(NCC2CCN(C)CC2)nc(SCCCCCCCCCC)n1` [S10N18 D10] belongs 3.8%; to `CCCCCCCCCCCCN(CCCCCCCCCCCC)c1nc(NCCN(C)C)nc(SCCCCCCCCCC)n1` [S10^2N12 D1], 3.2%; to `CCCCCCCCCCCCN(CCCCCCCCCCCC)c1nc(NCCN2CCOCC2)nc(SCCCCCCCCCC)n1` [S10^2N12 D2], 0.0%. For `CCCCCCCCCCCCN(CCCCCCCCCCCC)c1nc(NCCN2CCCC2)nc(SCCCCCCCCCC)n1` [S10^2N12 D3], the “Absolute DNA transfection efficiency” value is listed as 1.1%. In the case of `CCCCCCCCCCCCN(CCCCCCCCCCCC)c1nc(NCCN2CCCCC2)nc(SCCCCCCCCCC)n1` [S10^2N12 D4] it was 0.1%; in that of `CCCCCCCCCCCCN(CCCCCCCCCCCC)c1nc(NCCN2CCN(C)CC2)nc(SCCCCCCCCCC)n1` [S10^2N12 D5], 0.9%; in that of `CCCCCCCCCCCCN(CCCCCCCCCCCC)c1nc(NCCCN(C)C)nc(SCCCCCCCCCC)n1` [S10^2N12 D6], 4.3%. In the case of `CCCCCCCCCCCCN(CCCCCCCCCCCC)c1nc(NCCN(CC)CC)nc(SCCCCCCCCCC)n1` [S10^2N12 D7] it was 0.7%. In the case of `CCCCCCCCCCCCN(CCCCCCCCCCCC)c1nc(NCCCN2CCOCC2)nc(SCCCCCCCCCC)n1` [S10^2N12 D8] it was 0.0%. With `CCCCCCCCCCCCN(CCCCCCCCCCCC)c1nc(NCCCN2CCN(C)CC2)nc(SCCCCCCCCCC)n1` [S10^2N12 D9], the “Absolute DNA transfection efficiency” value is reported as 0.5%. In the case of `CCCCCCCCCCCCN(CCCCCCCCCCCC)c1nc(NCC2CCN(C)CC2)nc(SCCCCCCCCCC)n1` [S10^2N12 D10], the “Absolute DNA transfection efficiency” value is on record as 3.3%. In the case of `CCCCCCCCCCCSc1nc(NCCCCCC)nc(NCCN(C)C)n1` [S11N6 D1] it was 33.1%; in that of `CCCCCCCCCCCSc1nc(NCCCCCC)nc(NCCN2CCOCC2)n1` [S11N6 D2], 19.0%.

In the case of `CCCCCCCCCCCSc1nc(NCCCCCC)nc(NCCN2CCCC2)n1` [S11N6 D3], the “Absolute DNA transfection efficiency” value is 8.3%. As for `CCCCCCCCCCCSc1nc(NCCCCCC)nc(NCCN2CCCCC2)n1` [S11N6 D4], the “Absolute DNA transfection efficiency” value stood at 29.0%. As to `CCCCCCCCCCCSc1nc(NCCCCCC)nc(NCCN2CCN(C)CC2)n1` [S11N6 D5], the “Absolute DNA transfection efficiency” value turned out to be 21.6%. In the case of `CCCCCCCCCCCSc1nc(NCCCCCC)nc(NCCCN(C)C)n1` [S11N6 D6] it was 29.3%. With `CCCCCCCCCCCSc1nc(NCCCCCC)nc(NCCN(CC)CC)n1` [S11N6 D7], the “Absolute DNA transfection efficiency” value came to 25.0%. Regarding `CCCCCCCCCCCSc1nc(NCCCCCC)nc(NCCCN2CCOCC2)n1` [S11N6 D8], the “Absolute DNA transfection efficiency” value is 13.3%. In the case of `CCCCCCCCCCCSc1nc(NCCCCCC)nc(NCCCN2CCN(C)CC2)n1` [S11N6 D9] it was 13.5%; in that of `CCCCCCCCCCCSc1nc(NCCCCCC)nc(NCC2CCN(C)CC2)n1` [S11N6 D10], 8.8%. Consider `CCCCCCCCCCCSc1nc(NCCCCCCC)nc(NCCN(C)C)n1` [S11N7 D1], for which the “Absolute DNA transfection efficiency” value worked out at 27.6%. In the case of `CCCCCCCCCCCSc1nc(NCCCCCCC)nc(NCCN2CCOCC2)n1` [S11N7 D2], the “Absolute DNA transfection efficiency” value was 11.7%. Take `CCCCCCCCCCCSc1nc(NCCCCCCC)nc(NCCN2CCCC2)n1` [S11N7 D3]: the “Absolute DNA transfection efficiency” value is 19.4%. As for `CCCCCCCCCCCSc1nc(NCCCCCCC)nc(NCCN2CCCCC2)n1` [S11N7 D4], the “Absolute DNA transfection efficiency” value was determined as 4.6%. In the case of `CCCCCCCCCCCSc1nc(NCCCCCCC)nc(NCCN2CCN(C)CC2)n1` [S11N7 D5] it was 22.8%; in that of `CCCCCCCCCCCSc1nc(NCCCCCCC)nc(NCCCN(C)C)n1` [S11N7 D6], 34.0%; in that of `CCCCCCCCCCCSc1nc(NCCCCCCC)nc(NCCN(CC)CC)n1` [S11N7 D7], 11.6%. Regarding `CCCCCCCCCCCSc1nc(NCCCCCCC)nc(NCCCN2CCOCC2)n1` [S11N7 D8], the “Absolute DNA transfection efficiency” value amounted to 13.4%. To `CCCCCCCCCCCSc1nc(NCCCCCCC)nc(NCCCN2CCN(C)CC2)n1` [S11N7 D9] belongs 16.1%. Turning to `CCCCCCCCCCCSc1nc(NCCCCCCC)nc(NCC2CCN(C)CC2)n1` [S11N7 D10], the “Absolute DNA transfection efficiency” value is 28.5%.

`CCCCCCCCCCCSc1nc(NCCCCCCCC)nc(NCCN(C)C)n1` [S11N8 D1]: the “Absolute DNA transfection efficiency” value amounted to 19.8%.

Consider `CCCCCCCCCCCSc1nc(NCCCCCCCC)nc(NCCN2CCOCC2)n1` [S11N8 D2], for which the “Absolute DNA transfection efficiency” value is on record as 18.6%.

In the case of `CCCCCCCCCCCSc1nc(NCCCCCCCC)nc(NCCN2CCCC2)n1` [S11N8 D3], the “Absolute DNA transfection efficiency” value is reported as 26.0%.

Turning to `CCCCCCCCCCCSc1nc(NCCCCCCCC)nc(NCCN2CCCCC2)n1` [S11N8 D4], the “Absolute DNA transfection efficiency” value came out at 5.9%.

Take `CCCCCCCCCCCSc1nc(NCCCCCCCC)nc(NCCN2CCN(C)CC2)n1` [S11N8 D5]: the “Absolute DNA transfection efficiency” value is recorded as 19.3%. `CCCCCCCCCCCSc1nc(NCCCCCCCC)nc(NCCCN(C)C)n1` [S11N8 D6]: the “Absolute DNA transfection efficiency” value is 36.9%. In the case of `CCCCCCCCCCCSc1nc(NCCCCCCCC)nc(NCCN(CC)CC)n1` [S11N8 D7] it was 10.1%; in that of `CCCCCCCCCCCSc1nc(NCCCCCCCC)nc(NCCCN2CCOCC2)n1` [S11N8 D8], 12.2%. To `CCCCCCCCCCCSc1nc(NCCCCCCCC)nc(NCCCN2CCN(C)CC2)n1` [S11N8 D9] belongs 23.6%; to `CCCCCCCCCCCSc1nc(NCCCCCCCC)nc(NCC2CCN(C)CC2)n1` [S11N8 D10], 33.4%; to `CCCCCCCCCCCSc1nc(NCCCCCCCCC)nc(NCCN(C)C)n1` [S11N9 D1], 12.1%.

Turning to `CCCCCCCCCCCSc1nc(NCCCCCCCCC)nc(NCCN2CCOCC2)n1` [S11N9 D2], the “Absolute DNA transfection efficiency” value came out at 13.6%. `CCCCCCCCCCCSc1nc(NCCCCCCCCC)nc(NCCN2CCCC2)n1` [S11N9 D3]: the “Absolute DNA transfection efficiency” value was 23.1%. In the case of `CCCCCCCCCCCSc1nc(NCCCCCCCCC)nc(NCCN2CCCCC2)n1` [S11N9 D4], the “Absolute DNA transfection efficiency” value is given as 1.1%.
